Test system: CD4+ T cells from HIV-1-infected individuals
Test: Cell viability (CellTiter-Blue, Zombie Violet) of ex vivo treated CD4+ T cells
Assay type: cell-based, human
Details: at the indicated concentrations (up to 500 nM)
Source text: FIGS. 15 A-G depict the structural formulae for AZ505, AZ506, and AZ391, and the reactivation of latent HIV-1 with SMYD2 inhibitor X2 (AZ391) in CD4^+ T cells from HIV-1 infected individuals. (A) Structures of each compound are shown. (B) Intracellular HIV-1 mRNA levels in CD4^+ T cells, obtained from an infected individual (#1036) and treated ex vivo with AZ391, JQ1 or a combination of both, in indicated concentrations, presented as fold induction relative to DMSO control. Activation with αCD3/αCD28-Dynabeads was performed as control. (C) Flow cytometry of T-cell activation markers CD69 and CD25 in the same experiment. For each treatment group, CD69^+ (left) and CD25^+ (right). Shown as percentage of positive cells relative to αCD3/αCD28-treated cells (D) Cell viability as measured by CellTiter-Blue® Cell Viability assay (Promega) and Zombie Violet Fixable Viability kit (BioLegend) and presented as percentage of DMSO control treated cells. Data points indicate average of three technical replicates of donor #1036. (E-G) Same experiments as in b-d but performed with CD4^+ T cells obtained from three additional individuals (2013, 2185, 2511) with a single concentration of AZ391 (500 nM). In f and g, average of the three biological replicates (±SD) is show. For (F), for each treatment group, CD69^+ (left) and CD25^+ (right).

N#Cc1cc(C(=O)NCCCN2CCCC2)cc(-c2ccccc2N2CCN(CCc3c[nH]c4ccccc34)CC2)c1 [AZ391]
cell viability: no impact on cell viability
